US20200315231A1, “CO-C[…]” (NESTES S,A,, priority 2016, published 2020)

Assay: Water uptake behavior study in powder matrices at 33% Relative Humidity
Format: physicochemical
Conditions: all samples tested (maltodextrin, skimmed milk powder, full cream milk powder, growing up milk powder), co-crystal 7.6% by weight, 22 days, versus equivalent dry-mix CaCl2.2 H2O+sucrose
Procedure: The water uptake behavior was studied for the co-crystal of Sucrose.CaCl2.4 H2O in four different powder matrices: Maltodextrin (FIG. 5), skimmed milk powder (FIG. 6), full cream milk powder with 26% fat (FIG. 7), and powdered “growing up milk” (Nestlé BEBA3) (FIG. 8). For each matrix, three different calcium containing material were mixed into the powder to simulate calcium fortification. Powders were stored in a desiccator at 33% Relative Humidity over 22 days. The water uptake was measured every 3-4 days by tracking the weight change. The water uptake is shown in FIGS. 5 to 8): powder matrix alone (♦), powder matrix with CaCl2. 2 H2O (2.1% by weight): 13.59 g of matrix+290 mg of CaCl2.2 H2O (●), powder matrix with co-crystalline Sucrose.CaCl2.4 H2O (7.6% by weight): 13.59 g of matrix+1.04 g of co-crystal (▴), and powder matrix with the equivalent dry-mix: 13.59 g of matrix+290 mg of CaCl2.2 H2O+670 mg of sucrose (▪).

O.O.O.O.OC[C@H]1O[C@@](CO)(O[C@H]2O[C@H](CO)[C@@H](O)[C@H](O)[C@H]2O)[C@@H](O)[C@@H]1O.[Ca+2].[Cl-].[Cl-] [co-crystal, Sucrose.CaCl2.4 H2O]
water uptake (weight change) compared with the dry mix: lower for the co-crystal than for the dry mix
